pIC50: −log10 of the molar value.
Each compound was assayed against SARS-CoV-2 Papain-Like Protease (PLpro) (Severe acute respiratory syndrome coronavirus 2 (2019-nCoV) (SARS-CoV-2), UniProt P0DTD1) (assay: biochemical). Conditions: PLpro enzymatic fluorescence assay; class symbols; read-out: PLpro IC50.

Compound | pIC50
CCCN(CCC)c1cc(C2(NC(=O)c3cc(OC[C@@H]4CCN4C)ccc3C)CC2)c2cccnc2c1 [Compound 771, (S)—N-(1-(7-(Dipropylamino)quinolin-5-yl)cyclopropyl)-2-methyl-5-((1-methylazetidin-2-yl)methoxy)benzamide] | > 7.00
Cc1ncc(-c2cc(C3(NC(=O)c4cc(OC[C@@H]5CCN5C)ccc4C)CC3)c3cccnc3c2)s1 [Compound 764, (S)-2-Methyl-5-((1-methylazetidin-2-yl)methoxy)-N-(1-(7-(2-methylthiazol-5-yl)quinolin-5-yl)cyclopropyl)benzamide] | > 7.00
COc1cc(C2(NC(=O)c3cc(OCCNC(C)(C)C)ccc3C)CC2)c2cccnc2c1 [Compound 626, 5-(2-(tert-Butylamino)ethoxy)-N-(1-(7-methoxyquinolin-5-yl)cyclopropyl)-2-methylbenzamide] | > 7.00
Cc1ccc([N+](=O)[O-])cc1CNC(c1cccc2ccccc12)C1COC1 (centres unmarked) [Compound 110] | < 5.30
Cc1ccc(OC[C@@H]2CCN2C)cc1C(=O)NC1(c2cc(N(C)S(C)(=O)=O)cc3ncccc23)CC1 [Compound 818, (S)-2-Methyl-5-((1-methylazetidin-2-yl)methoxy)-N-(1-(7-(N-methylmethylsulfonamido)quinolin-5-yl)cyclopropyl)benzamide] | > 7.00
COc1cc(C2(NC(=O)c3cc(OCC4c5ccccc5CCN4C)ccc3C)CC2)c2cccnc2c1 (centres unmarked) [Compound 801, N-(1-(7-Methoxyquinolin-5-yl)cyclopropyl)-2-methyl-5-((2-methyl-1,2,3,4-tetrahydroisoquinolin-1-yl)methoxy)benzamide] | > 7.00
Cc1ccc(OC[C@@H]2CCN2)cc1C(=O)NC1(c2cc(-c3ncn4ccccc34)cc3ncccc23)CC1 [Compound 733, (S)-5-(Azetidin-2-ylmethoxy)-N-(1-(7-(imidazo[1,5-a]pyridin-1-yl)quinolin-5-yl)cyclopropyl)-2-methylbenzamide] | > 7.00
Cc1ccc(OC[C@@H]2CCN2C)cc1C(=O)NC1(c2cc(-c3cc[nH]n3)cc3ncccc23)CC1 [Compound 633, (S)-N-(1-(7-(1H-Pyrazol-3-yl)quinolin-5-yl)cyclopropyl)-2-methyl-5-((1-methylazetidin-2-yl)methoxy)benzamide] | > 7.00
Cc1nnc(-c2cc(C3(NC(=O)c4cc(OC[C@@H]5CCN5C)ccc4C)CC3)c3cccnc3c2)s1 [Compound 691, (S)-2-Methyl-N-(1-(7-(5-methyl-1,3,4-thiadiazol-2-yl)quinolin-5-yl)cyclopropyl)-5-((1-methylazetidin-2-yl)methoxy)benzamide] | > 7.00
C=Cc1cc(C2(NC(=O)c3cc(OC[C@@H]4CCN4C)c(NC)cc3C)CC2)c2cccnc2c1 [Compound 745, (S)-2-Methyl-4-(methylamino)-5-((1-methylazetidin-2-yl)methoxy)-N-(1-(7-vinylquinolin-5-yl)cyclopropyl)benzamide] | > 7.00
Cc1ccc(OC[C@@H]2CCN2C)cc1C(=O)NC1(c2cc(-c3ccoc3)cc3ncccc23)CC1 [Compound 655, (S)—N-(1-(7-(Furan-3-yl)quinolin-5-yl)cyclopropyl)-2-methyl-5-((1-methylazetidin-2-yl)methoxy)benzamide] | > 7.00
Cc1ccc(OC[C@@H]2CCN2C)cc1C(=O)NC1(c2cc(-c3cc4ccccc4s3)cc3ncccc23)CC1 [Compound 621, (S)-N-(1-(7-(Benzo[b]thiophen-2-yl)quinolin-5-yl)cyclopropyl)-2-methyl-5-((1-methylazetidin-2-yl)methoxy)benzamide] | > 7.00
COc1ccccc1C1(NC(=O)c2cc(OCCN(C)C)ccc2C)CC1 [Compound 277, 5-(2-(Dimethylamino)ethoxy)-N-(1-(2-methoxyphenyl)cyclopropyl)-2-methylbenzamide] | < 5.30
Cc1ncc(-c2cc(C3(NC(=O)c4cc(OC[C@@H]5CCN5C)ccc4C)CC3)c3cccnc3c2)o1 [Compound 716, (S)-2-Methyl-5-((1-methylazetidin-2-yl)methoxy)-N-(1-(7-(2-methyloxazol-5-yl)quinolin-5-yl)cyclopropyl)benzamide] | > 7.00
C=C(C)c1cc(C2(NC(=O)c3cc(OCCNC)ccc3C)CC2)c2cccnc2c1 [Compound 616, 2-Methyl-5-(2-(methylamino)ethoxy)-N-(1-(7-(prop-1-en-2-yl)quinolin-5-yl)cyclopropyl)benzamide] | > 7.00

Same assay, conditions: SARS-CoV-2 PLpro enzymatic fluorescence assay; read-out: PLpro IC50

Compound | pIC50
Cc1ccc(OCCN(C)C)cc1C(=O)NC1(c2cccc3sccc23)CC1 [Compound 356, N-(1-(Benzo[b]thiophen-4-yl)cyclopropyl)-5-(2-(dimethylamino)ethoxy)-2-methylbenzamide] | > 7.00
Cc1ccc(OCC2COCCN2C)cc1C(=O)NC1(c2cccc3ccccc23)CC1 (centres unmarked) [Compound 302, 2-Methyl-5-((4-methylmorpholin-3-yl)methoxy)-N-(1-(naphthalen-1-yl)cyclopropyl)benzamide] | 6.00 to 7.00
CC(=O)NCCOc1ccc(C)c(C(=O)NC2(c3cccc4ccccc34)CC2)c1 [Compound 425, 5-(2-Acetamidoethoxy)-2-methyl-N-(1-(naphthalen-1-yl)cyclopropyl)benzamide] | 6.00 to 7.00
CNCCOc1ccc(C)c(C(=O)NC2(c3cc(OC)cc4ncccc34)CC2)c1 [Compound 526, N-(1-(7-Methoxyquinolin-5-yl)cyclopropyl)-2-methyl-5-(2-(methylamino)ethoxy)benzamide] | > 7.00
Cc1cc2[nH]c(=O)[nH]c2cc1C(=O)NC1(c2cccc3ccccc23)CC1 [Compound 238, 6-Methyl-N-(1-(naphthalen-1-yl)cyclopropyl)-2-oxo-2,3-dihydro-1H-benzo[d]imidazole-5-carboxamide] | 6.00 to 7.00
COc1cc(C2(NC(=O)c3cc(CC[C@@H]4CCC4C)ccc3C)CC2)c2ccncc2c1 (some centres unmarked) [Compound 538] | > 7.00
C#Cc1ccc(OCCN(C)C)cc1C(=O)NC1(c2cccc3ccccc23)CC1 [Compound 337, 5-(2-(Dimethylamino)ethoxy)-2-ethynyl-N-(1-(naphthalen-1-yl)cyclopropyl)benzamide] | < 5.30
C=Cc1cc(C2(NC(=O)c3cc(O[C@@H](C)[C@@H]4CCN4C)ccc3C)CC2)c2cccnc2c1 (relative stereo) [Compound 757, 2-Methyl-5-((S)-1-((S)-1-methylazetidin-2-yl)ethoxy)-N-(1-(7-vinylquinolin-5-yl)cyclopropyl)benzamide] | > 7.00
Cc1cc2ccn(C)c2cc1C(=O)N(C)C1(c2cccc3ccccc23)CC1 [Compound 208, N,1,5-Trimethyl-N-(1-(naphthalen-1-yl)cyclopropyl)-1H-indole-6-carboxamide] | < 5.30
Cc1cc(C)c(C(=O)NC2(c3cccc4ccccc34)CC2)cc1OCCN(C)C [Compound 405, 5-(2-(Dimethylamino)ethoxy)-2,4-dimethyl-N-(1-(naphthalen-1-yl)cyclopropyl)benzamide] | > 7.00
Cc1ccc(OC[C@@H]2CCN2C)cc1C(=O)NC1(c2cc(Br)cc3ncccc23)CC1 [Compound 563, (S)-N-(1-(7-Bromoquinolin-5-yl)cyclopropyl)-2-methyl-5-((1-methylazetidin-2-yl)methoxy)benzamide] | > 7.00
Cc1cc2cccnc2cc1C(=O)N[C@H](C)c1cccc2ccccc12 [Compound 150, (R)-6-Methyl-N-(1-(naphthalen-1-yl)ethyl)quinoline-7-carboxamide] | 5.30 to 6.00
Cc1cc2cc(C3CNC3)[nH]c2cc1C(=O)N[C@H](C)c1cccc2ccccc12 [Compound 156, (R)-2-(Azetidin-3-yl)-5-methyl-N-(1-(naphthalen-1-yl)ethyl)-1H-indole-6-carboxamide] | 5.30 to 6.00
Cc1ccc(Nc2ccc[nH]c2=O)cc1C(=O)N[C@H](C)c1cccc2ccccc12 [Compound 119, (R)-2-Methyl-N-(1-(naphthalen-1-yl)ethyl)-5-((2-oxo-1,2-dihydropyridin-3-yl)amino)benzamide] | 5.30 to 6.00
Cc1ccc(OCCN(C)C)cc1C(=O)N[C@H](C)c1cccc2ccccc12 [Compound 160, (R)-5-(2-(Dimethylamino)ethoxy)-2-methyl-N-(1-(naphthalen-1-yl)ethyl)benzamide] | 6.00 to 7.00
Cc1ccc(OCC2CCN2c2ccccc2)cc1C(=O)NC1(c2cccc3ccccc23)CC1 (centres unmarked) [Compound 331, 2-Methyl-N-(1-(naphthalen-1-yl)cyclopropyl)-5-((1-phenylazetidin-2-yl)methoxy)benzamide] | < 5.30
Cc1ccc(CC#N)cc1C(=O)NC1(c2cccc3ccccc23)CC1 [Compound 313, 5-(Cyanomethyl)-2-methyl-N-(1-(naphthalen-1-yl)cyclopropyl)benzamide] | 6.00 to 7.00
Cc1cc2cccnc2cc1C(=O)N[C@H](C)c1cccc(-c2ccc(CN[C@H]3CC[C@@H](O)C3)s2)c1 [Compound 154, N-((R)-1-(3-(5-((((1S,3R)-3-Hydroxycyclopentyl)amino)methyl)thiophen-2-yl)phenyl)ethyl)-6-methylquinoline-7-carboxamide] | 5.30 to 6.00
Cc1ccc(CC(N)=O)cc1C(=O)NC1(c2cccc3ccccc23)CC1 [Compound 312, 5-(2-Amino-2-oxoethyl)-2-methyl-N-(1-(naphthalen-1-yl)cyclopropyl)benzamide] | 6.00 to 7.00
5-(2-Hydroxyethoxy)-2-methyl-N-(1-(naphthalen-1-yl)cyclopropyl)benzamide [Compound 393] | 6.00 to 7.00
Cc1ccc(OC[C@@H]2CCN2C)cc1C(=O)NC1(c2cc(-c3cccs3)cc3ncccc23)CC1 [Compound 551, (S)-2-Methyl-5-((1-methylazetidin-2-yl)methoxy)-N-(1-(7-(thiophen-2-yl)quinolin-5-yl)cyclopropyl)benzamide] | > 7.00
Cc1ccc(OCCN(C)C)cc1C(=O)NC1(c2cccc3ccoc23)CC1 [Compound 370, N-(1-(Benzofuran-7-yl)cyclopropyl)-5-(2-(dimethylamino)ethoxy)-2-methylbenzamide] | 6.00 to 7.00
Cc1cc2cc(CN)[nH]c2cc1C(=O)NC1(c2cccc(Br)c2)CC1 [Compound 232, 2-(Aminomethyl)-N-(1-(3-bromophenyl)cyclopropyl)-5-methyl-1H-indole-6-carboxamide] | 5.30 to 6.00
